Reference: ChEMBL document CHEMBL3217602, “20-O-IngenolEZ, a catalytic topoisomerase II inhibitor, specifically inhibits cell proliferation and induces double-strand DNA breaks in BLM-/- cells” (2011)
Calls of active or inactive are those of the source. The calls are words filed in the database; no cut-off is given here.

How the values were obtained:
DT40 [1] = assay: Induction of double-strand DNA breaks in chicken BLM-/- DT40 cell nuclear fraction assessed as gamma-H2AX phosphorylation at 0.9 uM after 24 hrs by immunoblot analysis; type: functional, cell-based; conditions: Gallus gallus
[2] = Induction of apoptosis in chicken BLM-/- DT40 cells at 0.9 uM after 24 hrs by DAPI staining based immunofluorescence assay; type: functional, Gallus gallus
DT40 [3] = assay: Inhibition of chicken WRN-/- DT40 cell proliferation at 200 uM after 2 days by MTT assay; type: functional, cell-based; conditions: Gallus gallus
DT40 [4] = assay: (§1) Inhibition of chicken wild type DT40 cell proliferation at 200 uM after 2 days by MTT assay; type: functional; conditions: Gallus gallus
DT40 [5] = assay: Inhibition of chicken BLM-/- DT40 cell proliferation at 200 uM after 2 days by MTT assay; type: functional, cell-based; conditions: Gallus gallus
DT40 [6] = assay: Inhibition of chicken wild type DT40 cell proliferation at 2 to 100 uM after 2 days by MTT assay; type: functional, cell-based; conditions: Gallus gallus
DT40 [7] = assay: Induction of apoptosis in chicken BLM-/- DT40 cells at 200 uM after 24 hrs by DAPI staining based immunofluorescence assay; type: functional, cell-based; conditions: Gallus gallus
DT40 [8] = assay: Induction of double-strand DNA breaks in chicken BLM-/- DT40 cell nuclear fraction assessed as gamma-H2AX phosphorylation at 200 uM after 24 hrs by immunoblot analysis; type: functional, cell-based; conditions: Gallus gallus
DT40 [9] = assay: Inhibition of chicken WRN-/- DT40 cell proliferation at 2 to 100 uM after 2 days by MTT assay; type: functional, cell-based; conditions: Gallus gallus
[10] = as §1; type: functional; conditions: Gallus gallus, DT40, 48 h
DT40 [11] = assay: Inhibition of chicken BLM-/- DT40 cell proliferation at 2 to 60 uM after 2 days by MTT assay; type: functional, cell-based; conditions: Gallus gallus
DT40 [12] = assay: Inhibition of chicken BLM-/- DT40 cell proliferation at 100 uM after 2 days by MTT assay; type: functional, cell-based; conditions: Gallus gallus

SMILES: COc1cccc2c1C(=O)c1c(O)c3c(c(O)c1C2=O)C[C@@](O)(C(=O)CO)C[C@@H]3O[C@H]1C[C@H](N)[C@H](O)[C@H](C)O1 [DOXORUBICIN]
- Activity (DT40 [1]): Active
- Activity [2]: 60%

SMILES: C[C@H]([C@H](C)N1CC(=O)NC(=O)C1)N1CC(=O)NC(=O)C1
- inhibition (DT40 [3]): Active
- inhibition (DT40 [4]): Active
- inhibition (DT40 [5]): Active

SMILES: CCCCC/C=C\C=C\C(=O)OCC1=C[C@@H]2C(=O)[C@]3(C=C(C)[C@H](O)[C@@]3(O)[C@@H]1O)[C@H](C)C[C@@H]1[C@H]2C1(C)C
- inhibition (DT40 [6]): inactive
- Activity (DT40 [7]): Active
- inhibition (DT40 [3]): inactive
- Activity (DT40 [8]): Active
- inhibition (DT40 [9]): inactive
- inhibition at 200 µM [10]: 50%
- inhibition (DT40 [5]): Active
- inhibition (DT40 [11]): inactive
- inhibition (DT40 [12]): Active
